Data reported in BigSolDB 2.1.

NNC(=O)c1ccncc1
solubility (mole fraction)
Settings | 301 K | 303 K | 308 K | 311 K | 313 K
in acetone | 0.00946 | 0.0104 | 0.0136 | 0.016 | 0.0187
in ethanol | 0.00545 | 0.00579 | 0.00717 | 0.00816 | 0.00887
in ethyl acetate | 0.00159 | 0.00172 | 0.00206 | 0.00225 | 0.00251
in methanol | 0.0107 | 0.0114 | 0.0137 | 0.0154 | 0.0163
